{
  "source": "BindingDB's records for patent US8476306",
  "about": "(The Medicines, 2013)",
  "data": [
    {"target": "Urokinase-type plasminogen activator (Homo sapiens, UniProt P00749)", "test": "Enzyme Assay", "settings": "24 °C", "text": "Inhibition constant of the compound against Plasminogen activator urokinase", "units": {"Ki": "nM"}, "values": [
      {"smiles": "N=C(N)c1ccc(CNC(=O)CNC(=O)[C@@H](CO)NS(=O)(=O)Cc2ccc(CN)cc2)cc1", "note": "[US8476306, 6.11]", "Ki": 120},
      {"smiles": "N=C(N)c1ccc(CNC(=O)CNC(=O)[C@@H](CO)NS(=O)(=O)Cc2ccncc2)cc1", "note": "[US8476306, 6.24]", "Ki": 100},
      {"smiles": "N=C(N)c1ccc(CNC(=O)[C@H](CCCCN)NC(=O)[C@@H](CO)NS(=O)(=O)Cc2ccccc2)cc1", "note": "[US8476306, 8.1]", "Ki": 24},
      {"smiles": "N=C(N)c1ccc(CNC(=O)[C@H](CCCN=C(N)N)NC(=O)[C@@H](CO)NS(=O)(=O)Cc2ccccc2)cc1", "note": "[US8476306, 8.2]", "Ki": 8.9}
    ]}
  ]
}
